The values that follow come from ChEMBL document CHEMBL4346659, “Design, synthesis and evaluation of novel 7H-pyrrolo[2,3-d]pyrimidin-4-amine derivatives as potent, selective and reversible Bruton's tyrosine kinase (BTK) inhibitors for the treatment of rheumatoid arthritis” (Eur J Med Chem, 2019).

SMILES strings stand for the structures.

Test [1] deals with T1, Tyrosine-protein kinase BTK (Homo sapiens, UniProt Q06187). Kind of test: Inhibition of BTK (unknown origin) at 1 uM in the presence of ATP by caliper mobility shift assay relative to control.
Test [2] concerns the target T1, Tyrosine-protein kinase BTK. Kind of test: Inhibition of BTK (unknown origin) at 0.1 uM in the presence of ATP by caliper mobility shift assay relative to control.
Test [3] relates to Ramos. Nature of the test: Antiproliferative activity against human Ramos cells. It is filed as functional, cell-based. The note with it: Homo sapiens, Ramos.
Test [4] concerns JeKo-1. Nature of the test: Antiproliferative activity against human JeKo1 cells. The note with it: Homo sapiens, JeKo-1. Format: functional, cell-based.
The subject of test [5] is Daudi. Kind of test: Antiproliferative activity against human Daudi cells. The note with it: Homo sapiens, Daudi. Format: functional, cell-based.

T1 sequence (Q06187 whole entry): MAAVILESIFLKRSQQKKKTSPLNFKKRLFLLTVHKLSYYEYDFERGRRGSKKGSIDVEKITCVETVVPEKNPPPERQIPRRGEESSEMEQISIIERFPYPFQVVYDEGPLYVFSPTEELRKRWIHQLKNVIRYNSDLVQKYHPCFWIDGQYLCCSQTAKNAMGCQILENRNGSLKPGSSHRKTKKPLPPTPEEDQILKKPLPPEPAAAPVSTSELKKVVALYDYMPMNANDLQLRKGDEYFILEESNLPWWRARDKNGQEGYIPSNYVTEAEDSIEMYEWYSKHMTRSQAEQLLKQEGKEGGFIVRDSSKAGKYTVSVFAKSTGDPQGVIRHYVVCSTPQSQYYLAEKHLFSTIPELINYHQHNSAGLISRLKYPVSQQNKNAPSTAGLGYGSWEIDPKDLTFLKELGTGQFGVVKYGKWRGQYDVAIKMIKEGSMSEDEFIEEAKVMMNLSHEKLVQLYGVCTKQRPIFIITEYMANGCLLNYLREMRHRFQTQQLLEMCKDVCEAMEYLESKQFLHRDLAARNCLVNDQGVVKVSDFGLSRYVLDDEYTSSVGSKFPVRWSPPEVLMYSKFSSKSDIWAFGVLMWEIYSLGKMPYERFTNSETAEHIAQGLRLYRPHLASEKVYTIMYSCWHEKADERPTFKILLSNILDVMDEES

In general, inhibition refers to the relative decrease from the control value, in per cent. For orientation: IC50 means the concentration at which inhibition is half-maximal. High values mean lower potency, low ones higher potency. As to `Nc1ncnc2c1c(-c1cccc(-n3ncc4ccccc4c3=O)c1)cn2[C@H]1CCN(C[C@@H]2CO2)C1`, the inhibition in test [1] turned out to be 17.5%; in test [2], 3.41%. Besides, the IC50 in test [3] came out at 15.2 µM; in test [4], 15.2 µM; in test [5] it was 14.6 µM.
In the case of `C[C@@H]1C[C@H](n2cc(-c3ccc4c(c3)OCO4)c3c(N)ncnc32)CN1C[C@@H]1CO1`, the inhibition in test [1] was found to be 47.1%; in test [2], 12.7%. The concentration for half-maximal inhibition (IC50) is 7.97 µM in test [3], 4.61 µM in test [4] and 10.9 µM in test [5].
In the case of `Nc1ncnc2c1c(-c1ccc3c(c1)OCO3)cn2[C@H]1CCN(CC2CCCO2)C1` (some centres not stated), the results for the inhibition in test [1] and in test [2] were 18.9% and 3.01%, respectively. Besides, the IC50 was 27.1 µM in test [3], 3.88 µM in test [4] and 25.9 µM in test [5].
As to `Nc1ncnc2c1c(-c1ccc3c(c1)OCO3)cn2C[C@H]1CCCN(C[C@@H]2CO2)C1`, the inhibition worked out at 70.3% in test [1] and 34.7% in test [2]. The IC50 in test [3] came to 15.1 µM; in test [4], 7.96 µM; in test [5] it was 10.6 µM.
`CN(C)CC(=O)N1CC[C@H](n2cc(-c3ccc4c(c3)OCO4)c3c(N)ncnc32)C1`: the inhibition in test [1] was 23.7%; in test [2], -0.41%. Also, the concentration for half-maximal inhibition (IC50) in test [3] is 21 µM; in test [4] it was 28.4 µM; in test [5], 23.1 µM.
As to `CC1(C(=O)N2CC[C@H](n3cc(-c4ccc5c(c4)OCO5)c4c(N)ncnc43)C2)COC1`, the inhibition is 22.4% in test [1] and -0.35% in test [2]. The IC50 in test [3] stood at 39 µM; in test [4], 36.4 µM; in test [5], 30.5 µM.
Regarding `Nc1ncnc2c1c(-c1ccc3c(c1)OCO3)cn2[C@H]1CCN(C(=O)c2ccccn2)C1`, the inhibition worked out at 28.1% in test [1] and 1.45% in test [2]. Besides, the figures for the IC50 in test [3], in test [4] and in test [5] were 20.7 µM, 19.5 µM and 12.3 µM, respectively.
Regarding `CC(C)(C)c1ccc(C(=O)Nc2cccc(-c3cn([C@H]4CCN(C[C@@H]5CO5)C4)c4ncnc(N)c34)c2)cc1`, the values for the inhibition in test [1] and in test [2] were 22.2% and 2.29%, respectively. Also, the IC50 was found to be 4.82 µM in test [3], 2.54 µM in test [4] and 5.97 µM in test [5].
On to `Nc1ncnc2c1c(-c1cnc3[nH]ccc3c1)cn2C[C@H]1CCCN1C[C@@H]1CO1`, for which the inhibition was found to be 26.9% in test [1] and 13.7% in test [2].
Turning to `Nc1ncnc2c1c(-c1cnc3[nH]ccc3c1)cn2[C@H]1CCN(C[C@@H]2CO2)C1`, the inhibition was found to be 46.6% in test [1] and 12.8% in test [2]. Moreover, the 50% inhibitory concentration (IC50) in test [3] turned out to be 4.65 µM; in test [4] it was 9.44 µM; in test [5], 2.99 µM.
For the compound `Nc1ncnc2c1c(-c1ccc3c(c1)OCO3)cn2CC1CCCO1` (configuration not stated), the figures for the inhibition in test [1] and in test [2] were 21.8% and -6.11%, respectively. In addition, the IC50 stood at 24.2 µM in test [3], 17.1 µM in test [4] and 20.9 µM in test [5].
As for `Nc1ncnc2c1c(-c1ccc3c(c1)OCO3)cn2[C@H]1CCN(S(=O)(=O)C2CC2)C1`, the inhibition in test [1] worked out at 37.2%; in test [2] it was 1.64%. The results for the IC50 in test [3], in test [4] and in test [5] were 7.79 µM, 11.8 µM and 16.6 µM, respectively.
The like results for `COC(CN1CC[C@H](n2cc(-c3ccc4c(c3)OCO4)c3c(N)ncnc32)C1)OC` were, in that order, 37.1%, 4.71%, 24.9 µM, 2.45 µM and 53.5 µM.
For the compound `Nc1ncnc2c1c(-c1ccc3c(c1)OCO3)cn2[C@H]1CCN(C(=O)c2ccccc2)C1`, the inhibition is 29.4% in test [1] and 37.1% in test [2]. In addition, the IC50 in test [3] was 35.2 µM; in test [4], 17 µM; in test [5], 8.26 µM.
With `Nc1ncnc2c1c(-c1cc3ccccc3o1)cn2[C@H]1CCN(C[C@H]2CO2)C1`, the inhibition in test [1] was 62.9%; in test [2], 17.4%. For the same compound, the IC50 was 1.65 µM in test [3], 0.63 µM in test [4] and 4.21 µM in test [5].
The corresponding values for `Nc1ncnc2c1c(-c1ccc3c(c1)OCO3)cn2C[C@H]1CCN(C[C@@H]2CO2)C1` are 63.7%, 23.9%, 27 µM, 7.25 µM and 15 µM.
Consider `N#CCCN1CC[C@H](n2cc(-c3ccc4c(c3)OCO4)c3c(N)ncnc32)C1`, for which the inhibition in test [1] was 67.8%; in test [2], 21.6%. For the same compound, the IC50 in test [3] was found to be 13.2 µM; in test [4] it was 1.84 µM; in test [5], 10.2 µM.
As to `Nc1ncnc2c1c(-c1ccc(NC(=O)c3ccccc3)cc1)cn2[C@H]1CCN(C[C@@H]2CO2)C1`, the inhibition in test [1] amounted to 22.9%; in test [2], 2.53%. For the same compound, the results for the IC50 in test [3], in test [4] and in test [5] were 2.25 µM, 5.39 µM and 3.18 µM, respectively.
Take `COCCN1CC[C@H](n2cc(-c3ccc4c(c3)OCO4)c3c(N)ncnc32)C1`: the inhibition in test [1] is 8.09%; in test [2], 14.3%. Also, the IC50 turned out to be 21.2 µM in test [3], 6.74 µM in test [4] and 4.3 µM in test [5].
For the compound `CC(C)(C)c1ccc(C(=O)Nc2ccc(-c3cn([C@H]4CCN(C[C@@H]5CO5)C4)c4ncnc(N)c34)cc2)cc1`, the inhibition came to 53.8% in test [1] and 15.7% in test [2]. For the same compound, the IC50 in test [3] stood at 2.97 µM; in test [4] it was 3.29 µM; in test [5] it was 5.98 µM.
Consider `Nc1ncnc2c1c(-c1ccc(Oc3ccccc3)cc1)cn2C[C@H]1CCCN1C[C@@H](O)CO`, for which the values for the inhibition in test [1] and in test [2] were 62.5% and 23.9%, respectively. Moreover, the IC50 in test [3] worked out at 13.5 µM; in test [4] it was 9.54 µM; in test [5] it was 14.4 µM.
The corresponding values for `Nc1ncnc2c1c(-c1cc3ccccc3o1)cn2[C@H]1CCN(C[C@@H]2CO2)C1` are 59.1%, 20.2%, 6.74 µM, 2.82 µM and 4.51 µM.
The like results for `Nc1ncnc2c1c(-c1ccc3c(c1)OCO3)cn2C1CCN(C[C@@H]2CO2)CC1` were, in that order, 89.4%, 60.2%, 32.8 µM, 12.9 µM and 21.3 µM.
As to `CC(C)(C)c1ccc(CN2CC[C@H](n3cc(-c4ccc5c(c4)OCO5)c4c(N)ncnc43)C2)cc1`, the figures for the inhibition in test [1] and in test [2] were 3% and 0.01%, respectively. Further, the IC50 is 4.41 µM in test [3], 2.07 µM in test [4] and 13.2 µM in test [5].
`Nc1ncnc2c1c(-c1ccc3c(c1)OCO3)nn2C[C@H]1CCCN1C[C@@H]1CO1`: the inhibition is 56.7% in test [1] and 13.9% in test [2]. For the same compound, the IC50 in test [3] amounted to 47.4 µM; in test [4], 43.2 µM; in test [5] it was 30.5 µM.
For the compound `Nc1ncnc2c1c(-c1ccc3c(c1)OCO3)cn2C[C@@H]1CCCN1C[C@@H]1CO1`, the inhibition in test [1] came out at 47.6%; in test [2], 13.5%. Moreover, the concentration for half-maximal inhibition (IC50) in test [3] worked out at 29 µM; in test [4], 21.6 µM; in test [5] it was 19 µM.
For `Nc1ncnc2c1c(-c1ccc(Oc3ccccc3)cc1)cn2C[C@H]1CCCN1C(CO)CO`, the inhibition in test [1] stood at 54.7%; in test [2] it was 18.3%. In addition, the IC50 in test [3] turned out to be 15.3 µM; in test [4], 14.5 µM; in test [5], 28.2 µM.
For the compound `Nc1ncnc2c1c(-c1ccc3c(c1)OCO3)cn2[C@H]1CCN(CCCO)C1`, the results for the inhibition in test [1] and in test [2] were 22.4% and 8.43%, respectively. Moreover, the IC50 in test [3] is 20.9 µM; in test [4], 3.13 µM; in test [5], 29.6 µM.
Consider `Nc1ncnc2c1c(-c1ccc3c(c1)OCO3)cn2[C@H]1CCN(CC2CC2)C1`, for which the inhibition in test [1] amounted to 15.2%; in test [2], 0.04%. Also, the results for the IC50 in test [3], in test [4] and in test [5] were 16.9 µM, 1.45 µM and 24.6 µM, respectively.
With `Nc1ncnc2c1c(-c1ccc3c(c1)OCO3)cn2CC1CCN(C[C@@H]2CO2)CC1`, the inhibition in test [1] amounted to 59.9%; in test [2], 14.2%. The IC50 came out at 10.9 µM in test [3], 15.3 µM in test [4] and 12.5 µM in test [5].
Turning to `CC(C)(C)c1ccc(COc2ccc(-c3cn([C@H]4CCN(C[C@@H]5CO5)C4)c4ncnc(N)c34)cc2)cc1`, the inhibition in test [1] is 7.63%; in test [2], 3.73%. Besides, the IC50 in test [3] came to 4.21 µM; in test [4], 5.97 µM; in test [5], 6.97 µM.
The corresponding values for `CC(C)(C)c1ccc(Oc2ccc(-c3cn([C@H]4CCN(C[C@@H]5CO5)C4)c4ncnc(N)c34)cc2)cc1` are 19.1%, 5.96%, 11.2 µM, 14.8 µM and 6.49 µM.
For `Nc1ncnc2c1c(-c1ccc3c(c1)OCO3)cn2C[C@@H]1CCCN(C[C@@H]2CO2)C1`, the inhibition in test [1] was found to be 49.2%; in test [2] it was 16.2%. Moreover, the figures for the IC50 in test [3], in test [4] and in test [5] were 13.1 µM, 8.85 µM and 10.5 µM, respectively.
`Nc1ncnc2c1c(-c1ccc3c(c1)OCO3)cn2[C@H]1CCN(Cc2cc(F)cc(F)c2)C1`: the inhibition in test [1] was found to be 30.2%; in test [2], 6.07%. Further, the IC50 worked out at 6.6 µM in test [3], 1.69 µM in test [4] and 11.6 µM in test [5].
On to `CN(C)C(=O)N1CC[C@H](n2cc(-c3ccc4c(c3)OCO4)c3c(N)ncnc32)C1`, for which the figures for the inhibition in test [1] and in test [2] were 42.6% and 1.87%, respectively. In addition, the IC50 in test [3] was 27.7 µM; in test [4] it was 24.2 µM; in test [5], 14.6 µM.
As for `Nc1ncnc2c1c(-c1ccc3c(c1)OCO3)cn2C1CCN(C2COC2)CC1`, the inhibition amounted to 45.7% in test [1] and 9.5% in test [2]. Also, the IC50 in test [3] turned out to be 38 µM; in test [4], 16.9 µM; in test [5], 24.1 µM.
